Series [1] deals with Plasmodium falciparum. The experiment in a line: Antimalarial activity against chloroquine-sensitive Plasmodium falciparum D6 infected in African green monkey (Cercopithecus aethiops) Vero cells assessed as parasite LDH activity after 72 hrs. Format: functional, organism-based.
For series [2], the system named is Plasmodium falciparum. The experiment in a line: Antimalarial activity against chloroquine-resistant Plasmodium falciparum W2 infected in African green monkey (Cercopithecus aethiops) (Cercopithecus aethiops) Vero cells assessed as parasite LDH activity after 72 hrs. Format: functional, organism-based.
The test system of the next series is Vero. Put plainly: Cytotoxicity against african green monkey Vero cells up to 470 nM by neutral red assay. The note with it: chlorocebus sabaeus. In kind it is cell-based.
The subject of series [3] is Candida albicans. The experiment in a line: Antifungal activity against Candida albicans by modified NCCLS method. In kind it is functional, organism-based.
Series [4] relates to Cryptococcus neoformans. The experiment in a line: Antifungal activity against Cryptococcus neoformans by modified NCCLS method. Format: functional, organism-based.
The subject of series [5] is Cryptococcus neoformans. Put plainly: Antifungal activity against Cryptococcus neoformans after 24 hrs by alamar blue assay. Format: functional.
Series [6] has as its system Mycobacterium intracellulare. The experiment in a line: Antibacterial activity against Mycobacterium intracellular by alamar blue assay. In kind it is functional, organism-based.
Series [7] has as its system Mycobacterium intracellulare. The experiment in a line: Antibacterial activity against Mycobacterium intracellular after 24 hrs by alamar blue assay. In kind it is functional.
For series [8], the system named is Aspergillus fumigatus. Put plainly: Antifungal activity against Aspergillus fumigatus by modified NCCLS method. Format: functional, organism-based.
A further series deals with Escherichia coli. The experiment in a line: Antibacterial activity against Escherichia coli by modified NCCLS method. Format: functional, organism-based.
In another series the test system is Pseudomonas aeruginosa. The experiment in a line: Antibacterial activity against Pseudomonas aeruginosa by modified NCCLS method. In kind it is functional, organism-based.
Series [9] has as its system Candida albicans.
Description: Antifungal activity against Candida albicans after 24 hrs by alamar blue assay
Series [10] deals with Aspergillus fumigatus.
Description: Antifungal activity against Aspergillus fumigatus after 24 hrs by alamar blue assay
The mark [11] stands for this setting: Cryptococcus neoformans, read-out: IC50.
[12] abbreviates: Candida albicans, read-out: IC50.

Values after ≈ are worked out from the molar mass of the structure shown. Active and inactive are the calls of the source. The rule behind the calls is not given here. A value given as a limit tells only on which side of the number the result lay.

IC50, Activity and MIC data for 14 compounds are collected here from ChEMBL document CHEMBL1152671, “Structure-activity relationship studies of manzamine A: amidation of positions 6 and 8 of the beta-carboline moiety” (Bioorg Med Chem, 2009).

Regarding `CC(C)(C)CC(=O)Nc1ccc2[nH]c3c(C4=C[C@@]5(O)CC/C=C\CCCCN6CC[C@@H]4[C@]4(C[C@@H]7/C=C\CCCCN7[C@H]45)C6)nccc3c2c1`, the IC50 was 211 nM in the series on Plasmodium falciparum [1]; 302 nM in the series with Plasmodium falciparum [2]; “Not Active” in the series with Candida albicans [3]; “Not Active” in the series on Cryptococcus neoformans [4]; 1360 nM in series [6]; “Not Active” in the series with Aspergillus fumigatus [8]. The Activity result in the series on Vero was “Non-toxic”. Also, the MIC entry in the series on Cryptococcus neoformans [5], with Candida albicans [9] and with Aspergillus fumigatus [10] was “inactive” in each case. This compound also returned an MIC in series [7] of 1.89 µM (≈ 1.25 µg/mL). The outcome in the series on Escherichia coli and in the series on Pseudomonas aeruginosa was inactive.
For `CC(C)(C)CC(=O)Nc1cccc2c1[nH]c1c(C3=C[C@@]4(O)CC/C=C\CCCCN5CC[C@@H]3[C@]3(C[C@@H]6/C=C\CCCCN6[C@H]34)C5)nccc12`, the half-inhibitory concentration (IC50) was 139 nM in the series on Plasmodium falciparum [1]; 127 nM in the series with Plasmodium falciparum [2]; “Not Active” with Candida albicans [3]; 14400 nM with Cryptococcus neoformans [4] (setting [11]); 1510 nM in series [6]; “Not Active” in the series with Aspergillus fumigatus [8]. The Activity result with Vero is listed as “Non-toxic”. Moreover, the MIC entry with Cryptococcus neoformans [5], in the series on Candida albicans [9] and in the series with Aspergillus fumigatus [10] was “inactive” in each case. The compound also came in with an MIC in series [7] of 3.78 µM (≈ 2.5 µg/mL). In addition, the outcome in the series with Escherichia coli and with Pseudomonas aeruginosa was inactive.
`Oc1cccc2c1[nH]c1c(C3=C[C@@]4(O)CC/C=C\CCCCN5CC[C@@H]3[C@]3(C[C@@H]6/C=C\CCCCN6[C@H]34)C5)nccc12`: the IC50 in the series on Plasmodium falciparum [1] came out at 11 nM; in the series with Plasmodium falciparum [2], 14 nM; with Candida albicans [3] (setting [12]), 6200 nM; in the series on Cryptococcus neoformans [4] (setting [11]), 3550 nM; in series [6] it was 177 nM. In the series with Candida albicans [9], the MIC entry was “inactive”.
For `CC(=O)Nc1ccc2[nH]c3c(C4=C[C@@]5(O)CC/C=C\CCCCN6CC[C@@H]4[C@]4(C[C@@H]7/C=C\CCCCN7[C@H]45)C6)nccc3c2c1` [6-ACETAMIDOMANZAMINE A], the IC50 is 1290 nM in the series on Plasmodium falciparum [1]; 1980 nM in the series with Plasmodium falciparum [2]; “Not Active” with Candida albicans [3]; “Not Active” in the series on Cryptococcus neoformans [4]; 9910 nM in series [6]; “Not Active” with Aspergillus fumigatus [8]. For the same compound, the Activity entry in the series on Vero was “Non-toxic”. Also, the MIC result in the series with Cryptococcus neoformans [5], with Candida albicans [9] and in the series on Aspergillus fumigatus [10] was “inactive” in each case. In [7], the MIC amounted to 16.5 µM (≈ 10 µg/mL). For the same compound, the outcome in the series with Escherichia coli and in the series with Pseudomonas aeruginosa was inactive.
For the compound `CC(C)C(=O)Nc1ccc2[nH]c3c(C4=C[C@@]5(O)CC/C=C\CCCCN6CC[C@@H]4[C@]4(C[C@@H]7/C=C\CCCCN7[C@H]45)C6)nccc3c2c1` [6-ISOBUTAMIDOMANZAMINE A], the IC50 in the series with Plasmodium falciparum [1] is 1100 nM; in the series with Plasmodium falciparum [2], 1550 nM; in the series with Candida albicans [3], “Not Active”; with Cryptococcus neoformans [4], “Not Active”; in series [6], 3160 nM; in the series on Aspergillus fumigatus [8], “Not Active”. Also, the Activity result with Vero is “Non-toxic”. Besides, the MIC entry in the series on Cryptococcus neoformans [5], in the series on Candida albicans [9] and in the series on Aspergillus fumigatus [10] was “inactive” throughout. The compound also yielded an MIC in series [7] of 3.95 µM (≈ 2.5 µg/mL). The result in the series with Escherichia coli and in the series with Pseudomonas aeruginosa was inactive.
Take `CCCC(=O)Nc1ccc2[nH]c3c(C4=C[C@@]5(O)CC/C=C\CCCCN6CC[C@@H]4[C@]4(C[C@@H]7/C=C\CCCCN7[C@H]45)C6)nccc3c2c1` [6-N-BUTAMIDOMANZAMINE A]: the IC50 in the series with Plasmodium falciparum [1] is 1150 nM; with Plasmodium falciparum [2], 1890 nM; with Candida albicans [3], “Not Active”; in the series on Cryptococcus neoformans [4], “Not Active”; in series [6], 4740 nM; in the series with Aspergillus fumigatus [8], “Not Active”. Further, the Activity result with Vero was “Non-toxic”. Also, the MIC result in the series with Cryptococcus neoformans [5], in the series on Candida albicans [9] and in the series with Aspergillus fumigatus [10] was “inactive” in each case. Also, the MIC in series [7] amounted to 7.89 µM (≈ 5 µg/mL). Besides, the outcome with Escherichia coli and with Pseudomonas aeruginosa was inactive.
Regarding `CCCCCC(=O)Nc1ccc2[nH]c3c(C4=C[C@@]5(O)CC/C=C\CCCCN6CC[C@@H]4[C@]4(C[C@@H]7/C=C\CCCCN7[C@H]45)C6)nccc3c2c1` [6-N-HEXAMIDOMANZAMINE A], the half-maximal inhibitory concentration (IC50) in the series with Plasmodium falciparum [1] is 680 nM; in the series on Plasmodium falciparum [2] it was 786 nM; in the series with Candida albicans [3], “Not Active”; in the series with Cryptococcus neoformans [4] it was “Not Active”; in series [6] it was 15100 nM; with Aspergillus fumigatus [8] it was “Not Active”. The Activity result with Vero is recorded as “Non-toxic”. The MIC entry with Cryptococcus neoformans [5], with Candida albicans [9] and with Aspergillus fumigatus [10] was “inactive” each time. Also, in series [7], the MIC turned out to be 30.2 µM (≈ 20 µg/mL). For the same compound, the outcome with Escherichia coli and in the series with Pseudomonas aeruginosa was inactive.
Turning to `CCCCCCC(=O)Nc1ccc2[nH]c3c(C4=C[C@@]5(O)CC/C=C\CCCCN6CC[C@@H]4[C@]4(C[C@@H]7/C=C\CCCCN7[C@H]45)C6)nccc3c2c1` [6-N-OCTAMIDOMANZAMINE A], the 50% inhibitory concentration (IC50) in the series with Plasmodium falciparum [1] is 696 nM; in the series on Plasmodium falciparum [2], 754 nM; in the series with Candida albicans [3], “Not Active”; with Cryptococcus neoformans [4], “Not Active”; in [6] it was 17400 nM; with Aspergillus fumigatus [8], “Not Active”. Further, the Activity result with Vero is “Non-toxic”. For the same compound, the MIC entry in the series on Cryptococcus neoformans [5], in the series with Candida albicans [9] and in the series with Aspergillus fumigatus [10] was “inactive” each time. In addition, in [7], it took 29 µM (≈ 19.6 µg/mL) to inhibit growth (MIC). Also, the outcome in the series on Escherichia coli and in the series with Pseudomonas aeruginosa was inactive.
Take `CCCCC(=O)Nc1ccc2[nH]c3c(C4=C[C@@]5(O)CC/C=C\CCCCN6CC[C@@H]4[C@]4(C[C@@H]7/C=C\CCCCN7[C@H]45)C6)nccc3c2c1` [6-N-PENTAMIDOMANZAMINE A]: the IC50 in the series on Plasmodium falciparum [1] was 1240 nM; in the series on Plasmodium falciparum [2], 1480 nM; in the series with Candida albicans [3] it was “Not Active”; in the series on Cryptococcus neoformans [4], “Not Active”; in series [6], 2320 nM; in the series on Aspergillus fumigatus [8] it was “Not Active”. The Activity result in the series with Vero is recorded as “Non-toxic”. Further, the MIC entry in the series with Cryptococcus neoformans [5], with Candida albicans [9] and in the series on Aspergillus fumigatus [10] was “inactive” each time. Also, the minimal inhibitory concentration (MIC) in [7] is 3.86 µM (≈ 2.5 µg/mL). In addition, the result in the series with Escherichia coli and with Pseudomonas aeruginosa was inactive.
On to `CCC(=O)Nc1ccc2[nH]c3c(C4=C[C@@]5(O)CC/C=C\CCCCN6CC[C@@H]4[C@]4(C[C@@H]7/C=C\CCCCN7[C@H]45)C6)nccc3c2c1` [6-N-PROPAMIDOMANZAMINE A], for which the IC50 was 1160 nM in the series on Plasmodium falciparum [1]; 1940 nM in the series with Plasmodium falciparum [2]; “Not Active” with Candida albicans [3]; “Not Active” with Cryptococcus neoformans [4]; 5650 nM in [6]; “Not Active” with Aspergillus fumigatus [8]. For the same compound, the Activity result in the series on Vero is recorded as “Non-toxic”. Further, the MIC result with Cryptococcus neoformans [5], in the series on Candida albicans [9] and in the series with Aspergillus fumigatus [10] was “inactive” in each case. Besides, 8.07 µM (≈ 5 µg/mL) was the least that counted as inhibitory in series [7] (MIC). Moreover, the result in the series on Escherichia coli and in the series on Pseudomonas aeruginosa was inactive.
Turning to `CC(C)(C)C(=O)Nc1ccc2[nH]c3c(C4=C[C@@]5(O)CC/C=C\CCCCN6CC[C@@H]4[C@]4(C[C@@H]7/C=C\CCCCN7[C@H]45)C6)nccc3c2c1` [6-PIVALAMIDOANZAMINE A], the IC50 with Plasmodium falciparum [1] was 231 nM; in the series on Plasmodium falciparum [2], 417 nM; in the series with Candida albicans [3], “Not Active”; with Cryptococcus neoformans [4] it was “Not Active”; in series [6], 1540 nM; in the series with Aspergillus fumigatus [8] it was “Not Active”. In the series on Vero, the Activity result was “Non-toxic”. In addition, the MIC entry with Cryptococcus neoformans [5], with Candida albicans [9] and in the series on Aspergillus fumigatus [10] was “inactive” each time. 3.86 µM (≈ 2.5 µg/mL) was the least that counted as inhibitory in [7] (MIC). For the same compound, the result in the series with Escherichia coli and with Pseudomonas aeruginosa was inactive.
With `CCC(=O)Nc1cccc2c1[nH]c1c(C3=C[C@@]4(O)CC/C=C\CCCCN5CC[C@@H]3[C@]3(C[C@@H]6/C=C\CCCCN6[C@H]34)C5)nccc12` [8-N-PROPAMIDOMANZAMINE A], the 50% inhibitory concentration (IC50) is 123 nM with Plasmodium falciparum [1]; 87 nM in the series with Plasmodium falciparum [2]; more than 32300 nM in the series with Candida albicans [3] (setting [12]); 1520 nM in series [6]; more than 32300 nM with Aspergillus fumigatus [8] (Aspergillus fumigatus, read-out: IC50). Further, the Activity entry in the series on Vero was “Non-toxic”. Besides, in series [7], the MIC was determined as 2.02 µM (≈ 1.25 µg/mL). The result in the series with Escherichia coli and in the series on Pseudomonas aeruginosa was inactive. For the same compound, the MIC entry in the series with Candida albicans [9] and in the series on Aspergillus fumigatus [10] was “inactive” each time.
As to `C[C@@H]1CC[C@H]2[C@@H](C)C(=O)O[C@@H]3O[C@@]4(C)CC[C@@H]1[C@]32OO4` [ARTEMISININ], the values for the IC50 with Plasmodium falciparum [1] and in the series on Plasmodium falciparum [2] were 46 nM and 28 nM, respectively.
`O=C(O)c1cn(C2CC2)c2cc(N3CCNCC3)c(F)cc2c1=O` [CIPROFLOXACIN] came in with an IC50 in series [6] of 1060 nM.
